Experimental data from article PMC13183420, “Sustained Action of Imapextide, A Glucagon-Like Peptide-1 Receptor Antagonist, in Healthy Volunteers” (The Journal of Clinical Endocrinology and Metabolism, 2025).

Columns and labels:
healthy volunteers = assay: Safety and tolerability, drug-drug interaction part; type: in vivo, human; conditions: n = 14; for TRAE, Acetaminophen-related: acetaminophen 1000 mg; for TRAE, Rosuvastatin-related: rosuvastatin 10 mg
Experimental: This phase 1, randomized, double-blind, placebo-controlled study (NCT06036784) enrolled healthy adults (aged 18-65 years) with a body mass index of 18 to 30 kg/m^2, stable body weight for 3 months or longer, and without diabetes. Potential participants were ineligible if they had type 1 or type 2 diabetes or prediabetes (based on medical history, relevant concomitant medications [including oral or injectable antidiabetic medications], fasting plasma glucose concentrations ≥100 mg/dL or glycated hemoglobin concentrations ≥5.7% [American Diabetes Association thresholds for diabetes and prediabetes ([18])]).
(§1) The DDI portion of the study included 1 cohort of 14 HVs and consisted of 2 study periods. […] Blood samples were also collected to measure clearance of the endogenous biomarker for hepatic OATP inhibition, coproporphyrin-I (CP-I), to assess potential inhibition of OATP1B1/3 by imapextide. […] The primary objective of the DDI portion was to evaluate the PK of rosuvastatin and acetaminophen in the presence and absence of imapextide.
The primary objective of the SAD and MAD portions of the study was to evaluate the safety and tolerability of imapextide; safety was also evaluated in the DDI portion. Safety assessments included incidence and severity of treatment-emergent adverse events (TEAEs), changes in physical examination findings, clinical laboratory abnormalities (serum chemistry, hematology, urinalysis, and coagulation; abnormalities were defined as deviation from the laboratory normal range), and potential effect on vital sign measures. All blood samples for safety analyses were collected after an overnight fast (≥8 hours). If present, data on ISRs were collected using a dedicated form and rated on severity according to the US Food and Drug Administration toxicity scale for vaccines (for details on severity grading, see Supplementary Table S1) ([20], [21]). All ISRs were evaluated, regardless of whether they were reported as TEAEs by the investigator. In the 30-mg-R cohort, participants with ISRs grade 2 or worse underwent a dermatology consultation, including a potential skin biopsy at the discretion of the dermatologist.

OATP1B1/OATP1B3 = assay: Drug-drug interaction: rosuvastatin PK in presence or absence of imapextide; type: in vivo, human; conditions: plasma, n = 14, statistic in brackets not given
Text: as §1
Imapextide was also examined as a perpetrator of OATP1B1/3, which would affect the hepatic clearance of rosuvastatin and CP-I. PK assessments for rosuvastatin included Cmax, tmax, AUC from 0 to 72 hours (AUC0-72), and AUCinf. PK assessments for CP-I included Cmax, tmax, AUC0-72, and AUC from 0 to 108 hours (AUC0-108).

[1] = DDI Period 2 (RBX + APAP + Imapextide 45 mg)
[2] = Period 1 (RBX 10 mg + APAP 1000 mg), no imapextide
[3] = Period 2 (RBX 10 mg + APAP 1000 mg + imapextide 45 mg given 2 days before)

AUC0-72 (OATP1B1/OATP1B3; [2]) | AUC0-inf (OATP1B1/OATP1B3; [2]) | Cmax (OATP1B1/OATP1B3; [2]) | tmax (OATP1B1/OATP1B3; [2]) | AUC0-72 (OATP1B1/OATP1B3; [3]) | AUC0-inf (OATP1B1/OATP1B3; [3]) | Cmax (OATP1B1/OATP1B3; [3]) | tmax (OATP1B1/OATP1B3; [3]) | Compound | TRAE, Acetaminophen-related (healthy volunteers; DDI Period 1 (RBX + APAP)) | TRAE, Acetaminophen-related (healthy volunteers; [1]) | TRAE, Rosuvastatin-related (healthy volunteers; DDI Period 1 (RBX + APAP)) | TRAE, Rosuvastatin-related (healthy volunteers; [1])
– | – | – | – | – | – | – | – | CC(=O)Nc1ccc(O)cc1 [Acetaminophen, acetaminophen] | 0 n (%) | 0 n (%) | – | –
27,660 (56.1) h*pg/mL | 36,090 (50.3) h*pg/mL | 2307 (85.1) pg/mL | 2.80 (84.7) h | 31,730 (48.3) h*pg/mL | 32,490 (49.4) h*pg/mL | 2962 (61.9) pg/mL | 2.72 (38.1) h | CC(C)c1nc(N(C)S(C)(=O)=O)nc(-c2ccc(F)cc2)c1/C=C/[C@@H](O)C[C@@H](O)CC(=O)O [Rosuvastatin, rosuvastatin] | – | – | 0 n (%) | 0 n (%)
